Values of other authors in US20050226814A1, “Diagnostic method and kit for implantation of a sustained release drug-delivery implant with a steroid” (Bausch & Lomb Incorporated, priority 2004, published 2005).

Columns and labels:
[1] = tested on: proliferative vitreoretinopathy; details: injected into the sub-conjuctival area
[2] = tested on: retinochoroid disorders; details: injection into the eye of a patient

SMILES	effect on proliferative vitreoretinopathy [1]	long-term effect [2]
C[C@]12CCC(=O)C=C1CC[C@@H]1[C@@H]2[C@@H](O)C[C@@]2(C)[C@H]1CC[C@]2(O)C(=O)CO [hydrocortisone]	inhibited proliferative vitreoretinopathy	
C[C@]12C=CC(=O)C=C1CC[C@H]1[C@@H]3C[C@@H](O)[C@](O)(C(=O)CO)[C@@]3(C)C[C@H](O)[C@@]12F [trimacinolone, triamcinolone]		did not have a significantly long-term effect
